{"source": "patent US20050226913A1", "about": "“Article for inhibiting microbial growth in physiological fluids” (Eastman Kodak Company, priority 2004, published 2005)", "assay": "Stability constant (log βn) of ligand with Fe(III)", "conditions": "Fe(III) (target) minus Ca (interfering), from Table 1", "text": "Herein the stability constant for the reaction of a metal-ion (M) and a sequestrant or ligand (L) is defined as follows: M+nL⇄MLn\nwhere the stability constant is βn=[MLn]/[M][L]^n, wherein [MLn] is the concentration of “complexed” metal-ion, [M] is the concentration of free (uncomplexed) metal-ion and [L] is the concentration of free ligand. The log of the stability constant is log βn, and n is the number of ligands, which coordinate with the metal."}
{"smiles": "O=C(O)CN(CCN(CC(=O)O)CC(=O)O)CCN(CC(=O)O)CC(=O)O", "note": "[DTPA, diethylenetriaminepentaacetic acid]", "values": [{"measurement": "selectivity: difference between the log stability constants", "result": 17.2}]}
